We go through five compounds from ChEMBL document CHEMBL6078710, “Design, synthesis and biological evaluation of new SIRT3 activators for the treatment of triple-negative breast cancer” (Bioorg Med Chem, 2025).

In one test the test system is BT-549. The experiment in a line: Antiproliferative activity against human BT-549 cells assessed as inhibition of cell proliferation by MTT assay. (Tetrazolium assays rely on reduction of a dye to a coloured formazan, in cell work by metabolically active cells.)
Another test deals with MDA-MB-231. Nature of the test: Antiproliferative activity against human MDA-MB-231 cells assessed as inhibition of cell proliferation by MTT assay.
The target of test [1] is T1, NAD-dependent protein deacetylase sirtuin-3, mitochondrial (Homo sapiens, UniProt Q9NTG7).
T1 sequence (Q9NTG7 whole entry): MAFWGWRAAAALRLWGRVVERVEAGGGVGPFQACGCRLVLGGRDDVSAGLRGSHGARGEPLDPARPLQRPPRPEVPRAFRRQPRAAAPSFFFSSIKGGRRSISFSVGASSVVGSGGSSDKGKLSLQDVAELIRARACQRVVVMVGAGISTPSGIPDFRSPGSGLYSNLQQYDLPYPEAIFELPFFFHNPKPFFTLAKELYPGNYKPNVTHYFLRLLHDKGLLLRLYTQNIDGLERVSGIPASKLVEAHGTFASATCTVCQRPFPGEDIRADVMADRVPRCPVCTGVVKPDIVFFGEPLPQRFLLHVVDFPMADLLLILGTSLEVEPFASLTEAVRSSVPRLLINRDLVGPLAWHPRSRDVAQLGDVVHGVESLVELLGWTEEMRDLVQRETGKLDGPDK
Nature of the test: Activation of SIRT3 (unknown origin).

Turning to `CCOC(=O)C1=CN(C(=O)c2cc(OC)c(OC)c(OC)c2)C=C(C(=O)OCC)C1c1cnc(Cl)c(Cl)c1`, the IC50 in the test on BT-549 came to 2.77 µM; with MDA-MB-231, 5.78 µM.

With `CCOC(=O)C1=CN(C(=O)c2cc(OC)c(OC)c(OC)c2)C=C(C(=O)OCC)C1c1ccccc1`, the IC50 stood at 4.79 µM in the test with BT-549 and 5.23 µM in the test on MDA-MB-231.

Turning to `CC(C)C[C@@H]1NC(=O)CCN2C(=O)CC3(CC(C)(C)C(=O)N3S(=O)(=O)c3cccc(c3)C(=O)OCCOC(=O)[C@H](Cc3ccccc3)NC1=O)C2=O` (some centres undefined), the EC50 in test [1] was determined as 29.4 µM. In other words, the double-digit micromolar range.

For `CCOC(=O)C1=CN(C(=O)c2cc(OC)c(OC)c(OC)c2)C=C(C(=O)OCC)C1c1ccc(S(C)(=O)=O)cc1`, the IC50 turned out to be 8.21 µM with BT-549 and 14.2 µM in the test with MDA-MB-231.

Take `CCOC(=O)C1=CN(C(=O)c2ccc(OC)c(OC)c2)C=C(C(=O)OCC)C1c1ccc(S(C)(=O)=O)cc1`: the IC50 was 11.9 µM with BT-549 and 15.2 µM with MDA-MB-231.

What is called IC50 is the concentration at which inhibition is half-maximal. As a reminder, the EC50 is the midpoint of the concentration-response curve. A low value points to a more potent agent.
